According to PMC3115714 (Bioorganic & medicinal chemistry, 2011):

Columns and labels:
[1] = molecular target: κ-opioid receptor (hKOR-CHO) (Homo sapiens, UniProt P41145); assay: biochemical; type: biochemical
[2] = molecular target: κ-opioid receptor (CHO hKOR) (Homo sapiens, UniProt P41145); type: binding
[3] = molecular target: μ-opioid receptor (CHO hMOR) (Homo sapiens, UniProt P35372); type: binding
[4] = molecular target: μ-opioid receptor (hMOR-CHO) (Homo sapiens, UniProt P35372); assay: biochemical; type: biochemical
[5] = molecular target: δ-opioid receptor (CHO hDOR) (Homo sapiens, UniProt P41143); assay: Opioid receptor binding assay, [3H]DADLE displacement in hDOR-CHO cell membranes; conditions: selectivity μ over δ, from Ki
δ-opioid receptor (CHO hDOR), sequence (P41143 whole entry): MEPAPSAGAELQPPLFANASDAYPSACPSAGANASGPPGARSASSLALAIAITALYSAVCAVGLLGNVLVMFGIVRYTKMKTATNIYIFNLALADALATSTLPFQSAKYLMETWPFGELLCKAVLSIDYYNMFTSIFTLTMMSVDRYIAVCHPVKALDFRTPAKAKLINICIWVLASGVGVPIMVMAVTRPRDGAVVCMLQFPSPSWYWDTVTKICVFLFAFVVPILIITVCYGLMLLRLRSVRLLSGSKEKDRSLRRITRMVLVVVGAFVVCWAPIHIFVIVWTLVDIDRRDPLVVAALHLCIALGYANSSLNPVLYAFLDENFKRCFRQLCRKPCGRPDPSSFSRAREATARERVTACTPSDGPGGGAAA

μ-opioid receptor (hMOR-CHO), sequence (P35372 whole entry): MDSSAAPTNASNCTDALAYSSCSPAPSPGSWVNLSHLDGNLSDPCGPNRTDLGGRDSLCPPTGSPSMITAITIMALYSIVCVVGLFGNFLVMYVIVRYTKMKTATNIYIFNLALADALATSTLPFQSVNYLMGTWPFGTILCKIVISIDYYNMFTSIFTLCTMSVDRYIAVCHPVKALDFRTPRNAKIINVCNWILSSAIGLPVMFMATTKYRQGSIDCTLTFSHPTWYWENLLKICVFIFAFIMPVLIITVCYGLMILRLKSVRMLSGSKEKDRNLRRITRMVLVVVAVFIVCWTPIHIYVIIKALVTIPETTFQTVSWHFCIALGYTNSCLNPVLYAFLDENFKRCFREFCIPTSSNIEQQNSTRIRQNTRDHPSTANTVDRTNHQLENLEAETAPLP
κ-opioid receptor (hKOR-CHO), sequence (P41145 whole entry): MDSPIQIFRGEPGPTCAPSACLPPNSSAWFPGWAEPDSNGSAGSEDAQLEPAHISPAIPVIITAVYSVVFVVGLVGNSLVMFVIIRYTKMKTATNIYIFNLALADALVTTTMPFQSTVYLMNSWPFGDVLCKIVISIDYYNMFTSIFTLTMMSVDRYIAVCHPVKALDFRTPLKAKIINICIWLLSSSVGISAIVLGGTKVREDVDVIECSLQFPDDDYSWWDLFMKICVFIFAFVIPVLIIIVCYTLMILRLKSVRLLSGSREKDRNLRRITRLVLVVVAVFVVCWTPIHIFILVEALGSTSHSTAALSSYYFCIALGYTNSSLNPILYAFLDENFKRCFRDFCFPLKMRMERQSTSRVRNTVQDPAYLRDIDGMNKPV
κ-opioid receptor (CHO hKOR), sequence (P41145 whole entry): as above
μ-opioid receptor (CHO hMOR), sequence (P35372 whole entry): as the sequence (P35372 whole entry) above

With Oc1cccc2c1O[C@@H]1CN(CCc3ccccc3)[C@@H]3CCC[C@]21C3 (relative stereo) [Cmpd 12, (3R*,6aS*,11aS*)-2-Phenethyl-2,3,4,5,6,11a-hexahydro-1H -3,6a-methanobenzofuro[2,3-c]azocin-10-ol] as the molecule, how does the Kb [1] read?
Its Kb is 1.79 ± 0.51 nM.

What about the “κ-opioid antagonist potency relative to norBNI” value [1] of the same molecule?
The value was “one tenth the potency of norBNI”.

And the “fold less affinity for κ-receptors than for the μ-receptor” value [2]?
Its value is “about 50 fold”.

And the “μ affinity relative to morphine” value [3]?
Its value is “two to three times the affinity of morphine”.

And the Kb [4]?
Its Kb is 0.71 ± 0.09 nM.

And the “potency as μ-opioid antagonist relative to naloxone” value [4]?
The value was “more than three times as potent as naloxone”.

And the “fold less affinity for δ-receptors than for the μ-receptor” value [5]?
The value was “about 1200 fold”.
